From US20240316059A1, “PEPTIDE DRUG CONJUGATES” (Oncopeptides AB, priority 2021, published 2024)

Experiments:
THP-1 = assay: In vitro cytotoxicity, THP-1 (Acute Myeloid Leukemia); format: cell-based; conditions: Homo sapiens, THP-1, 72 h, read-out: Cytotoxicity IC50, THP-1
Method: (§1) All cells were cultivated in RPMI medium 1640 (IX). All media was supplemented with 10 μg/μl penicillin/streptomycin, 10% heat inactivated FBS, 0.1 mM Sodium Pyruvate, 1×MEM NEAA (ThermoFisher) and 1 mM HEPES. The DERL-2 cells had higher FBS (20%) and 40 ng/mL IL-2 was added. hPBMCs were thawed and allowed to acclimatise overnight and then stimulated with 10 μg/mL PHA-M and 40 ng/mL IL-2 for 4 hours before being exposed to test compounds. All cells, except for hPBMCs, were grown to reach log phase before being exposed to the test compounds.
(§2) Test compounds were dissolved in 100% DMSO and added to a 384 assay plate. Additional DMSO was added to maintain the same final DMSO concentration (0.2%) in all wells. 25 μL cell suspension with a concentration of 100000 cells/mL was added to each well. The cells were cultured in a CO2 incubator at 37° C. for 72 h. Plates were equilibrated to room temperature for 30 minutes before adding 20 μL CellTiter-Glo® 2.0 (Promega) reagent to all wells. The plate was then allowed to stabilize for 20 minutes before recording the luminescence (Em filter 700 nm) in an Envision plate reader.

U937 = assay: In vitro cytotoxicity, U937 (Histiocytic Lymphoma); format: cell-based; conditions: Homo sapiens, U-937, 72 h, read-out: Cytotoxicity IC50, U937
Method: as §1, §2

AMO-1 = assay: In vitro cytotoxicity, AMO-1 (Multiple Myeloma); format: cell-based; conditions: Homo sapiens, AMO1, 72 h, read-out: Cytotoxicity IC50, AMO-1
Method: as §1, §2

EJM = assay: In vitro cytotoxicity, EJM (Multiple Myeloma); format: cell-based; conditions: Homo sapiens, 72 h, read-out: Cytotoxicity IC50, EJM
Method: as §1, §2

KMS-12-BM = assay: In vitro cytotoxicity, KMS-12-BM (Multiple Myeloma); format: cell-based; conditions: Homo sapiens, 72 h, read-out: Cytotoxicity IC50, KMS-12-BM
Method: as §1, §2

OPM-2 = assay: In vitro cytotoxicity, OPM-2 (Multiple Myeloma); format: cell-based; conditions: Homo sapiens, OPM-2, 72 h, read-out: Cytotoxicity IC50, OPM-2
Method: as §1, §2

U266 = assay: In vitro cytotoxicity, U266 (Multiple Myeloma); format: cell-based; conditions: Homo sapiens, U-266, 72 h, read-out: Cytotoxicity IC50, U266
Method: as §1, §2

DOHH-2 = assay: In vitro cytotoxicity, DOHH-2 (B Cell Lymphoma); format: cell-based; conditions: Homo sapiens, DOHH-2, 72 h, read-out: Cytotoxicity IC50, DOHH-2
Method: as §1, §2

HG-3 = assay: In vitro cytotoxicity, HG-3 (Chronic Lymphocytic Leukemia); format: cell-based; conditions: Homo sapiens, HG-3, 72 h, read-out: Cytotoxicity IC50, HG-3
Method: as §1, §2

SUP-T1 = assay: In vitro cytotoxicity, SUP-T1 (T cell Lymphoma); format: cell-based; conditions: Homo sapiens, SUP-T1, 72 h, read-out: Cytotoxicity IC50, SUP-T1
Method: as §1, §2

MM.1S cells [1] = assay: Cellular retention/efflux: intracellular and extracellular concentrations by LC-MS/MS; format: in vitro ADME, human
Method: Methods: MMA1S cells at 2×10^6 cells/mL were seeded at 250 μL per well in a 96-well plate. Cells were incubated in the presence of a test compound for 5, 15, and 60 min before pelleting cells by centrifugation at +4° C. for 5 min. Cell media was immediately harvested to a second plate and stored at −80° C. until further analysis. Pelleted cells were washed once with ice cold PBS before storage at −80° C. until further analysis.
Cells were lysed and protein in the media were precipitated using acetonitrile dimethylformamide, 9:1 containing internal standard. Samples were centrifuged and the supernatant was analyzed with LC-MS/MS (ACQUITY UPLC-Xevo TQ-S micro) to determine compound concentration.
Example compound 1, bendamustine and melphalan were used as test compounds.
Method: Method described in Biological example 3.
Example compounds 1, 2, 3, 4, 6, 7 and 10 were investigated. Intracellular metabolites are formed from all compounds tested. The compound used for cell treatment was metabolised to the ester-hydrolysed compound (here called Metabolite A) and to the amide-hydrolysed compound (called Metabolite B). The example compound structures and the structures of the two metabolites for the respective compounds were as shown in Table 4. The Metabolites B formed under the conditions tested were compounds with structure as Examples 17 and 18: […]

[2] = system: DNA prepared from MM.1S cells (nuclear HPRT and mitochondrial DNA); assay: Direct DNA damage, PCR amplification of treated DNA (HPRT and mtDNA primers); format: biochemical, human; conditions: 0.25 μM compound, 30 minutes, 37° C., 1 μg DNA
How it was run: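 Genomic DNA isolated from MM.1S cells, 1 μg treated with 0.25 μM compound for 30 min at 37 °C, DMSO as control. Long-range PCR on 20 ng treated DNA yielding 10.4 kb (HPRT) or 8.9 kb (mtDNA) fragments; damage assessed by loss of product on 1% agarose gel.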

MM.1S cells [3] = assay: DNA fragmentation, APO-BrdU TUNEL assay by flow cytometry; format: cell-based, human; conditions: 24 h; for Cells with DNA breaks (TUNEL positive cells): 0.6 μM; for Dose response effect on DNA damage (TUNEL): 0.006, 0.06, 0.6 or 6 μM
Method: Method: 1×10^6 MM.1S cells (CRL-2974, ATCC) were treated with Example compound 1 or Bendamustine at 0.006, 0.06, 0.6 or 6 μM for 24 h. After incubation, the cells were washed with PBS (10010-015, Gibco), fixed in Flow Cytometry Fixation Buffer (FC004, R&D Systems) for 10 min and stored in 70% ethanol at −20° C. overnight. The deoxythymidine analog (BrdUTP) was present in the experiment and served to label the DNA break sites. Next day, the cells were washed and stained using an APO-BrdU™ TUNEL Assay Kit, according to the manufacturer's protocol (A23210, Invitrogen), followed by the analysis using BD FACSCanto™ II. The percentage of TUNEL positive cells indicates the percentage of cells with fragmented DNA.

SMILES | IC50 (THP-1) [µM] | IC50 (U937) [µM] | IC50 (AMO-1) [µM] | IC50 (EJM) [µM] | IC50 (KMS-12-BM) [µM] | IC50 (OPM-2) [µM] | IC50 (U266) [µM] | IC50 (DOHH-2) [µM] | IC50 (HG-3) [µM] | IC50 (SUP-T1) [µM] | Intracellular concentration (in words) (MM.1S cells [1]; MM.1S cells incubated with test compound 5, 15, 60 min, metabolites measured after treatment with the parent Example compound) | Extracellular concentration (in words) (MM.1S cells [1]; media of MM.1S cells incubated with test compound 5, 15, 60 min, metabolites measured after treatment with the parent Example compound) | DNA damage on nuclear and mitochondrial DNA (PCR band) [2] | Cells with DNA breaks (TUNEL positive cells) (MM.1S cells [3]) | Dose response effect on DNA damage (TUNEL) (MM.1S cells [3]) | Intracellular hydrolysis / formation of metabolites (MM.1S cells [1]; MM.1S cells, 5, 15, 60 min)
Cn1c(CCCC(=O)O)nc2cc(N(CCCl)CCCl)ccc21 [Bendamustine, bendamustine, reference compound] | 40.2 | 27.1 | 57 | 64.6 | 27.5 | 81.9 | 83 | 10.7 | 25.8 | 33.5 | Low intracellular concentrations | quite high and decreased overtime | no or very minor effect on DNA damage | that was not the case | no obvious effect | 
CCOC(=O)[C@H](CC(C)C)NC(=O)[C@@H](N)CCc1nc2cc(N(CCCl)CCCl)ccc2n1C [Example 1, Ethyl (2S)-2-[[(2S)-2-amino-4-[5-[bis(2-chloroethyl)amino]-1-methyl-benzimidazol-2-yl]butanoyl]amino]-4-methyl-pentanoate] | 0.016 | 0.0098 | 0.0497 | 0.0271 | 0.0079 | 0.173 | 0.0214 | 0.0042 | 0.0257 | 0.0127 |  |  | strong DNA damaging effect | > 90% | induced DNA damage in a dose-dependent manner | hydrolysis of Example compound 1 took place inside the cells
